Experiment: Pharmacokinetic study of DRV in rats after oral dosing
Type: in vivo, male Wistar rats
[1] = male, Wistar, rat, plasma, po, 50 mg/kg
[2] = oral 50 mg/kg, rats, n=6, mean±SD

An AUC(0-inf) [1] of 1060 ± 49 ng·h/mL, an AUC(0-t) [1] of 1010 ± 48 ng·h/mL and a Cmax [1] of 130 ± 4 ng/mL were found for `CC(C)CN(C[C@@H](O)[C@H](Cc1ccccc1)NC(=O)O[C@H]1CO[C@H]2OCC[C@H]21)S(=O)(=O)c1ccc(N)cc1` [DRV, darunavir] in this work. The MRT inf [1] was 7.89 ± 0.83 h, the Tmax [1] was 3 ± 0.28 h and the “AUMC0−t” value [2] was 6518±386 ng h^2/mL. For the same compound, the “AUMC0−∞” value [2] was 8408±914 ng h^2/mL.

Reference: publication PMC5761474 (Journal of Pharmaceutical Analysis, 2014)
